Key:
[1] = Apparent oral clearance in patient with HIV infection at 600 mg/kg, […] QD; assay type: ADME, organism-based; parameters: dose 600 mg/kg, route oral; conditions: human, in vivo
[2] = Apparent oral volume of distribution in patient with HIV infection at 600 mg/kg QD; assay type: ADME, organism-based; parameters: dose 600 mg/kg, route oral; conditions: human, in vivo, read-out: Vc/F

- CL/F [1]: 154 mL/min
- Vd/F [2]: 295 L
Structure (SMILES): O=C1Nc2ccc(Cl)cc2[C@@](C#CC2CC2)(C(F)(F)F)O1 [EFAVIRENZ]

— ChEMBL document CHEMBL1649521, “Influence of the cytochrome P450 2B6 genotype on population pharmacokinetics of efavirenz in human immunodeficiency virus patients” (Antimicrob Agents Chemother, 2009)
